The values that follow come from patent publication US12612426B2, “Aryl glucoside derivative” (Shanghai Zheye Biotechnology Co. Ltd., priority 2020, dated 2026).

SMILES strings stand for the structures.

Data set [1] in a line: Lipid and water solubility of click-chemistry candidate compound compared with Example 4. In kind it is physicochemical. From the text: The compound of Example 4, copper sulfate, and a cyclopropyl azide compound (refer to Chemische Berichte (1985), 118(4), 1564-1574; Science of Synthesis (2010), 41, 543-612; Nature (London, United Kingdom) (2019), 574(7776), 86-89) were stirred and reacted at room temperature, and after the reaction was completed, target compounds could be prepared by silica gel column chromatography. Rf: 0.16 (dichloromethane:methanol=10:1).

Data set [2] concerns the target T1, SGLT1 (Homo sapiens, UniProt P13866).
T1 sequence (P13866 1-664): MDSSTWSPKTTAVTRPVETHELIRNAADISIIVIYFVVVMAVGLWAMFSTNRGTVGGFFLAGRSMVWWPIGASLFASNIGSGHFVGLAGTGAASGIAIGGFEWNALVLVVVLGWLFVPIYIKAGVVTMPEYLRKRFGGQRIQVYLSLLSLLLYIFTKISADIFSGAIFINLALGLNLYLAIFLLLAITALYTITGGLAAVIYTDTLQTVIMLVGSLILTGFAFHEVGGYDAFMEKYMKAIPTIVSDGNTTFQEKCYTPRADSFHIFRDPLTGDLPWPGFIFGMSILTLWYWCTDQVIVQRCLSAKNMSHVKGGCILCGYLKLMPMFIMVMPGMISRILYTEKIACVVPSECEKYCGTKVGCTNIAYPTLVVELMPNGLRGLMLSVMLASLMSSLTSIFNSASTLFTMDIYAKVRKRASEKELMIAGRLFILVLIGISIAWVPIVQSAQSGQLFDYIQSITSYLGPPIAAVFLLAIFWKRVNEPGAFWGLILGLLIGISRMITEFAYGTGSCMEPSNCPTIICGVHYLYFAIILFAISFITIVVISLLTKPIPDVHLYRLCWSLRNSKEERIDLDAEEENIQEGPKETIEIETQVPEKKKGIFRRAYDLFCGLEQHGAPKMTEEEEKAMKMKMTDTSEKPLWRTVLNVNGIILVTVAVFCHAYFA
Briefly: hSGLT1 inhibitor activity experiment 2: 2-NBDG uptake by HEK293 cells stably expressing human SGLT1. In kind it is cell-based. Also on record: expressed in transfected cells. The note with it: read-out: SGLT1 Inhibitory Activity. The protocol: Inhibitory activity testing was performed with reference to a similar method described in document [Acta Pharmaceutica Sinica 2017, 52 (6): 897-903; Nature Protocols (2007), 2(3), 753-762; Journal of Biochemical and Biophysical Methods (2005), 64(3), 207-215; Diabetes Technology & Therapeutics (2011), 13(7), 743-775].
In this experiment, the in vitro activity assay was evaluated using the uptake of 2-NBDG (2-Deoxy-2-[(7-nitro-2,1,3-benzoxadiazol-4-yl)amino]-D-glucose, CAS NO: 186689-07-6) by human embryonic kidney epithelial cells (HEK293, stably expressing human SGLT1), and the SGLT1 inhibitory activity of the target compound was determined by measuring its half-maximal inhibitory concentration (IC50).
HEK293 cells that can stably express human SGLT1 gene were inoculated into a 96-well clear-bottom black plate containing DMEM medium. The cells were incubated at 37° C., 5% CO2 in a cell incubator. The medium in the 96-well plate was aspirated, and the plate was treated with low-glucose serum-free DMEM medium, and washed once with non-specific uptake buffer and once with Na^+-dependent uptake buffer. Uptake buffer containing test compound was added to each well of cells, followed by uptake buffer containing 2-NBDG for glucose uptake, and the cell plate was incubated at 37° C., 5% CO2. The compounds were gradiently diluted. The uptake reaction was stopped by removing the culture medium, and after washing the cells with ice-cold uptake buffer, the washing solution was removed. The cells were lysed by adding NaOH, and the content of 2-NBDG in the cells was detected by a fluorescence microplate reader. The protein concentration of the lysate was measured by BCA method, the uptake of 2-NBDG was quantified by fluorescence intensity/protein content, and the obtained data were analyzed using GraphPad Prism to determine the median inhibitory concentration (IC50) of the compound to be tested. […]

Data set [3] is described as follows: Oral glucose tolerance test (OGTT) after continuous administration in rats for 14 days. It counts as in vivo, SD rats. The note with it: for blood sugar level in OGTT: 0.009 mg/kg oral gavage for 14 days, OGTT on day 15; for loose stools: 0.009 mg/kg oral gavage, within 48 hours before and after the experiment. The protocol:
• Experimental animals: SPF male SD rats; • Compound preparation: an appropriate amount of the compounds of Example 1, Example 3, and Example 4 were weighed, and uniformly suspended with an appropriate amount of 0.5% CMC-Na solution; • Preparation of glucose solution: an appropriate amount of glucose powder was weighed and dissolved with an appropriate amount of pure water; • Dosage and method of administration: 0.009 mg/kg, oral gavage.
Experimental process: the animals were fed a normal diet with consecutive administration for 14 days, and the glucose tolerance test was performed on day 15, blood glucose was detected before administration (−30 min), before giving glucose (0 min), and 10, 30, 60, and 120 min after giving glucose solution, and the defecation of animals was observed.

Data set [4] addresses T1, SGLT1. Description: SGLT1 inhibitor activity experiment 1. In kind it is cell-based. The method, then:
The inhibitory activity of SGLT1 was tested with reference to the method described in document (Journal of Medicinal Chemistry 2017, 60, 710-721, Discovery of LX2761, a Sodium-Dependent Glucose Cotransporter 1 (SGLT1) Inhibitor Restricted to the Intestinal Lumen, for the Treatment of Diabetes).

Data set [5] is described as follows: Pharmacokinetic study in rats. In kind it is in vivo, SD rats. The note with it: 10 mg/kg oral gavage. The method, then:
5. Pharmacokinetic Study in Rats • Experimental animals: SPF male SD rats; • Dosage and method of administration: 10 mg/kg, oral gavage. • Research compound: Dapagliflozin, the compound of Example 4, the compound of Example 6, and the comparative compound 6; • Test method: Before administration (0), and 1, 4, 8, and 24 hours after administration, 0.2 ml of blood was collected from orbital venous plexus, anticoagulated with heparin, and plasma was collected.
Note: The comparative compound 6 is the compound numbered “6” in the document (Journal of Medicinal Chemistry 2017, 60, 710-721, Discovery of LX2761, a Sodium-Dependent Glucose Cotransporter 1 (SGLT1) Inhibitor Restricted to the Intestinal Lumen, for the Treatment of Diabetes). It was prepared and identified according to the synthetic method described in the document.

For `CS[C@H]1O[C@@H](c2ccc(C)c(Cc3ccc(CCCC(=O)NC(C)(C)C(=O)NCCN(C)Cc4cn(C5CC5)nn4)cc3)c2)[C@H](O)[C@@H](O)[C@@H]1O`, in data set [1], the “lipid solubility compared with Example 4” value was “better” and the “water solubility compared with Example 4” value is reported as “better”.
As for `CS[C@H]1O[C@@H](c2ccc(C)c(Cc3ccc(CCCC(=O)NC(C)(C)C(=O)NCCN4CCCC4)cc3)c2)[C@H](O)[C@@H](O)[C@@H]1O` [Example 1], the IC50 on SGLT1 [2] is 0.67 nM. For the same molecule, in data set [3], the “blood sugar level in OGTT” value is reported as “significantly reduce the blood sugar level of rats” and the loose stools entry is listed as “no loose stools were observed”.
Take `CS[C@H]1O[C@@H](c2ccc(C)c(Cc3ccc(CCCC(=O)NC(C)(C)C(=O)NCCN4CCN(C)CC4)cc3)c2)[C@H](O)[C@@H](O)[C@@H]1O` [Example 2]: the IC50 at SGLT1 [2] turned out to be 1.27 nM.
`CS[C@H]1O[C@@H](c2ccc(C)c(Cc3ccc(CCCC(=O)NC(C)(C)C(=O)NCCN(C)Cc4ccccc4)cc3)c2)[C@H](O)[C@@H](O)[C@@H]1O` [Example 3]: the IC50 at SGLT1 [2] is 0.83 nM. In data set [3], the “blood sugar level in OGTT” value is recorded as “significantly reduce the blood sugar level of rats” and the loose stools entry is recorded as “no loose stools were observed”.
In the case of `C#CCN(C)CCNC(=O)C(C)(C)NC(=O)CCOc1ccc(Cc2cc([C@@H]3O[C@H](SC)[C@@H](O)[C@H](O)[C@H]3O)ccc2C)cc1` [Example 5], the IC50 against SGLT1 [4] was under 50 nM.
Regarding `C#CCN(C)CCNC(=O)C(C)(C)NC(=O)CCOCc1ccc(Cc2cc([C@@H]3O[C@H](SC)[C@@H](O)[C@H](O)[C@H]3O)ccc2C)cc1` [Example 6], in data set [5], the “drug concentration in plasma” value is given as “did not reach the detection limit”. On SGLT1 [4], this molecule came in with an IC50 of under 50 nM.
Regarding `C#CCN(C)CCNC(=O)C(C)(C)NC(=O)C/C=C/c1ccc(Cc2cc([C@@H]3O[C@H](SC)[C@@H](O)[C@H](O)[C@H]3O)ccc2C)cc1` [Example 7], on SGLT1 [4], the IC50 was under 50 nM.
`C#CCN(C)CCNC(=O)C(C)(C)NC(=O)CCOc1ccc(Cc2cc([C@@H]3O[C@H](SC)[C@@H](O)[C@H](O)[C@H]3O)ccc2C#C)cc1` [Example 8]: at SGLT1 [4], the IC50 is under 50 nM.
